Assay results taken from BindingDB's records for doi:10.1016/j.ejmech.2019.05.014 (Xuzhou Medical University, 2019).

How the values were obtained:
[1] = Inhibition of capsid protein in lamivudine/entecavir-resistant Hepatitis B virus harboring rtL180M/rtM204V/rt184L mutant infected in human HepG2.2.15 cells assessed as reduction in viral DNA level measured after 72 hrs by PCR analysis
[2] = Inhibition of capsid protein in Hepatitis B virus infected in human HepG2.2.15 cells assessed as reduction in viral DNA level at 4 uM supplemented with fresh medium containing compound every 2 days and measured after 6 days by RT-PCR analysis

SMILES	IC50 [1]	IC50 [2]
CCN(CC)CCOc1ccc2nc(SCc3ccccc3)n(Cc3cccs3)c(=O)c2c1	0.84 µM	0.71 µM
CN(C)CCOc1ccc2nc(SCc3ccccc3)n(Cc3cccs3)c(=O)c2c1	1.9 µM	1.54 µM
COc1ccccc1CSc1nc2ccccc2c(=O)n1Cc1cccs1		2.81 µM
COc1ccccc1CSc1nc2ccc(F)cc2c(=O)n1Cc1cccs1		2.48 µM
COc1ccc(C(C)=O)cc1CSc1nc2ccccc2c(=O)n1Cc1cccs1		4.07 µM
CCN(CC)CCOc1ccc2nc(SCc3ccccc3OC)n(Cc3cccs3)c(=O)c2c1		1.93 µM
Nc1ccn([C@@H]2CS[C@H](CO)O2)c(=O)n1 [Epivir]	> 100 µM	< 0.1 µM
